# From patent publication EP4737449A1 (Changchun Genescience Pharmaceutical Co., Ltd., priority 2023, dated 2025)
# Biological target: T1, p53-Y220C mutant protein (Homo sapiens, UniProt P04637, Y220C)
# T1 construct: The recombinant Y220C p53 DBD protein with his-tag
# Test: In vitro DNA binding activity assay (TR-FRET)
# Format: biochemical
# Settings: concentration required to increase the binding activity of protein to DNA by 50%
# In short: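 SC150, the compound concentration increasing p53-Y220C DNA binding by 50% relative to vehicle, came from background-corrected 665/615 nm TR-FRET ratios. His-tagged DBD and compound were preincubated 60 min at RT before biotin-DNA plus Eu-anti-His/streptavidin-d2 detection overnight in the dark.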
row,SMILES,SC150 [nM]
1,"CN1CC[C@@H](Nc2cccc3c(CC(F)(F)F)c(C#CCNC(=O)c4cnn(C)n4)nn23)[C@@H](F)C1 [Compound 325, N-[3-(7-{[(3S,4R)-3-fluoro-1-methylpiperidin-4-yl]amino}-3-(2,2,2-trifluoroethyl)pyrazolo[1,5-a]pyridin-2-yl)prop-2-yn-1-yl]-2-methyl-2H-1,2,3-triazole-4-carboxamide]",35
2,"CN1CC[C@@H](Nc2cccc3c(CC(F)(F)F)c(C#CCNC(=O)c4cnn(C)c4F)nn23)[C@@H](F)C1 [Compound 327, 5-fluoro-N-[3-(7-{[(3S,4R)-3-fluoro-1-methylpiperidin-4-yl]amino}-3-(2,2,2-trifluoroethyl)pyrazolo[1,5-a]pyridin-2-yl)prop-2-yn-1-yl]-1-methyl-1H-pyrazole-4-carboxamide]",27
3,"CCn1cc(C(=O)NCC#Cc2nn3c(N[C@@H]4CCN(C)C[C@@H]4F)cccc3c2CC(F)(F)F)c(N)n1 [Compound 329, 3-amino-1-ethyl-N-(3-(7-{[(3S,4R)-3-fluoro-1-methylpiperidin-4-yl]amino}-3-(2,2,2-trifluoroethyl)pyrazolo[1,5-a]pyridin-2-yl)prop-2-yn-1-yl]-1H-pyrazole-4-carboxamide]",9
4,"CN1CC[C@@H](Nc2cccc3c(CC(F)(F)F)c(C#CCNC(=O)c4cccc(C(C)(C)O)c4)nn23)[C@@H](F)C1 [Compound 334, N-[3-(7-{[(3S,4R)-3-fluoro-1-methylpiperidin-4-yl]amino}-3-(2,2,2-trifluoroethyl)pyrazolo[1,5-a]pyridin-2-yl)prop-2-yn-1-yl)-3-(2-hydroxyprop-2-yl)benzamide]",33
5,"COc1cncc(C(=O)NCC#Cc2nn3c(N[C@@H]4CCN(C)C[C@@H]4F)cccc3c2CC(F)(F)F)c1 [Compound 335, N-[3-(7-{[(3S,4R)-3-fluoro-1-methylpiperidin-4-yl]amino}-3-(2,2,2-trifluoroethyl)pyrazolo[1,5-a]pyridin-2-yl)prop-2-yn-1-yl]-5-methoxynicotinamide]",41
6,"CCc1cc(C(=O)NCC#Cc2nn3c(N[C@@H]4CCN(C)C[C@@H]4F)cccc3c2CC(F)(F)F)cs1 [Compound 336, 5-ethyl-N-[3-(7-{[(3S,4R)-3-fluoro-1-methylpiperidin-4-yl]amino}-3-(2,2,2-trifluoroethyl)pyrazolo[1,5-a]pyridin-2-yl)prop-2-yn-1-yl]thiophene-3-carboxamide]",68
7,"CN1CC[C@@H](Nc2cccc3c(CC(F)(F)F)c(C#CCNC(=O)c4cccc(F)c4)nn23)[C@@H](F)C1 [Compound 339, 3-fluoro-N-[3-(7-{[(3S,4R)-3-fluoro-1-methylpiperidin-4-yl]amino}-3-(2,2,2-trifluoroethyl)pyrazolo[1,5-a]pyridin-2-yl)prop-2-yn-1-yl]benzamide]",92
8,CCn1ncc(C(=O)NCC#Cc2nn3c(N[C@@H]4CCN(C)C[C@@H]4F)cccc3c2CC(F)(F)F)c1Cl [Compound 343],25
9,CCn1cc(C(=O)NCC#Cc2nn3c(N[C@@H]4CCN(C)C[C@@H]4F)cccc3c2CC(F)(F)F)c(Cl)n1 [Compound 344],56
10,"CN1CC[C@@H](Nc2cccc3c(CC(F)(F)F)c(C#CCNC(=O)c4cnn(C(C)(C)C5CC5)c4)nn23)[C@@H](F)C1 [Compound 346, 1-(2-cyclopropylprop-2-yl)-N-[3-(7-{[(3S,4R)-3-fluoro-1-methylpiperidin-4-yl]amino}-3-(2,2,2-trifluoroethyl)pyrazolo[1,5-a]pyridin-2-yl)prop-2-yn-1-yl]-1H-pyrazole-4-carboxamide]",18
11,"CCc1c(C#CCNC(=O)c2cnn(C(C)(C)C)c2N)nn2c(N[C@@H]3CCN(C)C[C@@H]3F)cccc12 [Compound 348, 5-amino-1-tert-butyl-N-[3-(3-ethyl-7-{[(3S,4R)-3-fluoro-1-methylpiperidin-4-yl]amino}-pyrazolo[1,5-a]pyridin-2-yl)prop-2-yn-1-yl]-1H-pyrazole-4-carboxamide]",28
12,CN1CC[C@@H](Nc2cccc3c(CC(F)(F)F)c(C#CCNC(=O)c4cn(CC5CCCC5)nc4N)nn23)[C@@H](F)C1 [Compound 349],12
13,"CN1CC[C@@H](Nc2cccc3c(CC(F)(F)F)c(C#CCNC(=O)c4cn(C5CC5)nc4N)nn23)[C@@H](F)C1 [Compound 350, 3-amino-N-[3-(7-{[(3S,4R)-3-fluoro-1-methylpiperidin-4-yl]amino}-3-(2,2,2-trifluoroethyl)pyrazolo[1,5-a]pyridin-2-yl)prop-2-yn-1-yl]-1-(cyclopropyl)-1H-pyrazole-4-carboxamide]",13
14,CN1CC[C@@H](Nc2cccc3c(CC(F)(F)F)c(C#CCNC(=O)c4cn(CC(C)(C)C)nc4N)nn23)[C@@H](F)C1 [Compound 352],13
15,"CN1CC[C@@H](Nc2cccc3c(CC(F)(F)F)c(C#CCNC(=O)c4cn(C(C)(C)C)nc4O)nn23)[C@@H](F)C1 [Compound 356, 1-(tert-butyl)-N-[3-(7-{[(3S,4R)-3-fluoro-1-methylpiperidin-4-yl]amino}-3-(2,2,2-trifluoroethyl)pyrazolo[1,5-a]pyridin-2-yl)prop-2-yn-1-yl]-3-hydroxy-1H-pyrazole-4-carboxamide]",87
16,"Cc1cc(N[C@@H]2CCN(C)C[C@@H]2F)n2nc(C#CCNC(=O)c3cnn(C(C)(C)C)c3N)c(CC(F)(F)F)c2c1 [Compound 360, 5-amino-1-tert-butyl-N-[3-(7-{[(3S,4R)-3-fluoro-1-methylpiperidin-4-yl]amino}-5-methyl-3-(2,2,2-trifluoroethyl)pyrazolo[1,5-a]pyridin-2-yl)prop-2-yn-1-yl]-1H-pyrazole-4-carboxamide]",160
17,"CC(C)(C)n1ncc(C(=O)NCC#Cc2nn3c(NC4CCOCC4)cccc3c2CC(F)(F)F)c1N [Compound 361, 5-amino-1-tert-butyl-N-(3-(7-[(tetrahydro-2H-pyran-4-yl)amino]-3-(2,2,2-trifluoroethyl)pyrazolo[1,5-a]pyridin-2-yl)prop-2-yn-1-yl)-1H-pyrazole-4-carboxamide]",49
18,"CC(C)c1c(C#CCNC(=O)c2cnn(C(C)(C)C)c2N)nn2c(N[C@@H]3CCN(C)C[C@@H]3F)cccc12 [Compound 362, 5-amino-1-tert-butyl-N-(3-(7-{[(3S,4R)-3-fluoro-1-methylpiperidin-4-yl]amino}-3-(prop-2-yl)pyrazolo[1,5-a]pyridin-2-yl)prop-2-yn-1-yl)-1H-pyrazole-4-carboxamide]",98
19,"CN1CCC(Nc2cccc3c(CC(F)(F)F)c(C#CCNC(=O)c4cnn(C(C)(C)C)c4N)nn23)C1 (stereo not drawn) [Compound 366, 5-amino-1-tert-butyl-N-(3-(7-[(1-methylpyrrolidin-3-yl)amino]-3-(2,2,2-trifluoroethyl)pyrazolo[1,5-a]pyridin-2-yl)prop-2-yn-1-yl)-1H-pyrazole-4-carboxamide]",30
20,CN1CCC2(CC1)CC(Nc1cccc3c(CC(F)(F)F)c(C#CCNC(=O)c4cnn(C(C)(C)C)c4N)nn13)C2 [Compound 367],27
21,"CN1CC2CCC(C1)C2Nc1cccc2c(CC(F)(F)F)c(C#CCNC(=O)c3cnn(C(C)(C)C)c3N)nn12 (stereo not drawn) [Compound 368, 5-amino-1-(tert-butyl)-N-(3-(7-((3-methyl-3-azabicyclo[3.2.1]octan-8-yl)amino)-3-(2,2,2-trifluoroethyl)pyrazolo[1,5-a]pyridin-2-yl)prop-2-yn-1-yl)-1H-pyrazole-4-carboxamide]",57
22,"CN1CCC(Nc2cccc3c(CC(F)(F)F)c(C#CCNC(=O)c4cnn(C(C)(C)C)c4N)nn23)CC1 [Compound 370, 5-amino-1-tert-butyl-N-(3-(7-[(1-methylpiperidin-4-yl)amino]-3-(2,2,2-trifluoroethyl)pyrazolo[1,5-a]pyridin-2-yl)prop-2-yn-1-yl)-1H-pyrazole-4-carboxamide]",9
23,"COCC(O)CN1CCC(Nc2cccc3c(CC(F)(F)F)c(C#CCNC(=O)c4cnn(C(C)(C)C)c4N)nn23)CC1 (stereo not drawn) [Compound 371, 5-amino-1-tert-butyl-N-[3-(7-{[1-(2-hydroxy-3-methoxypropy)piperidin-4-yl]amino}-3-(2,2,2-trifluoroethyl)pyrazolo[1,5-a]pyridin-2-yl)prop-2-yn-1-yl]-1H-pyrazole-4-carboxamide]",12
24,"CC(C)(C)n1ncc(C(=O)NCC#Cc2nn3c(N[C@@H]4CCN(C5CC5)C[C@@H]4F)cccc3c2CC(F)(F)F)c1N [Compound 372, 5-amino-1-tert-butyl-N-(3-(7-{[(3S,4R)-1-cyclopropyl-3-fluoropiperidin-4-yl]amino}-3-(2,2,2-trifluoroethyl)pyrazolo[1,5-a]pyridin-2-yl)prop-2-yn-1-yl)-1H-pyrazole-4-carboxamide]",18
